Reference: US12264349B2, “Method for producing monoterpenoid compounds” (John Innes Centre, priority 2018, dated 2025)
Read-outs that look alike come from different tables or passages of the source.

Key:
[1] = target: T1, NEPS1-WT (Nepeta racemosa, UniProt A0A3Q8GL18); experiment: NEPS1 dehydrogenase activity kinetics, spectrophotometric at 340 nm; assay type: biochemical, Nepeta mussinii; details: for Kcat or V (velocity V, single substrate concentration): substrate 1000 μM
T1 construct: made in house; host or cells: E. coli SoluBL21
T1 sequence (A0A3Q8GL18 1-271): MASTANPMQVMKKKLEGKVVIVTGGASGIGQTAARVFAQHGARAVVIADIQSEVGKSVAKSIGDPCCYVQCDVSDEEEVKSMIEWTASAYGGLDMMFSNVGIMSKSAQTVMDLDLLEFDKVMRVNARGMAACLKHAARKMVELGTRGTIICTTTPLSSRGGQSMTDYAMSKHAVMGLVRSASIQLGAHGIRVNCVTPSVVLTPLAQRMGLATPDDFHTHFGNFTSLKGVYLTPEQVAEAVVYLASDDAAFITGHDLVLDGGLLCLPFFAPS
Procedure: (§1) Kinetics and dehydrogenase activity measurements were conducted spectrophotometrically on a PerkinElmer Lambda 35 instrument at a wavelength of 340 nm and in cuvettes with 1 cm path length. The reactions were conducted at 25° C. and with 50 mM HEPES pH 8.0, […].
(§2) Reactions were initiated by addition of the enzyme, and absorbance values were recorded at a rate of 1 Hz. Enzyme concentration was varied from 0.025-0.25 μM to maintain a linear rate. The R software environment was used to fit linear initial rates over the first 20 s of the enzyme reaction. For Michaelis-Menten experiments, at least 8 data points were obtained for each substrate combination. The Michaelis-Menten equation was fitted to the data points in R by the nls function to obtain values for the kinetic parameters. Kinetic parameters are reported as a best fit estimate±SE. For activity measurements with NADP^+ and NADH, single substrate concentrations were employed. Velocity values (in italics) are provided as a mean of triplicate measurements±standard deviation from the mean.

[2] = Nepetalactol stability in buffer (GC-MS); assay type: physicochemical; details: 30° C.
Procedure: Cis-trans-nepetalactol (4a, FIG. 10A) and cis-cis-nepetalactol (4b, FIG. 10B) stability in 10 mM and 0.5 M MOPS pH 7.5. 4a appears to be stable in both these conditions. 4b appears mostly stable in 10 mM MOPS pH 7.5, but is not stable in high buffer concentrations (0.5 M MOPS pH 7.5) and degrades to form iridodials 5. Chromatograms are all GC-MS TICs, RT=retention time (min), incubation was 16 h, 30° C.
End-point assays with purified enzymes were conducted at a total volume of 100 μL. Reactions using either 8-oxogeranial 2 or 8-oxocitronellal 6 as a substrate contained 1% v/v MeCN. In experiments examining the effect of buffer concentrations, enzymes were diluted with water. Trace residual concentrations of sample buffer in the enzyme sample were too low to effect product profiles. All reactions were conducted at 30° C. Reactions containing 8-oxogeranial 2 as a substrate were incubated for 3 h, whilst reactions with 8-oxocitronellal 6 were incubated for 16 h, unless noted. At reaction termination, a camphor standard (10 μL, stock 1 mM in MeCN) and EtOAc (100 μL) were added. The reactions were vortexed, centrifuged (10,000×g, 10 min) and the organic layer was used in GC-MS analysis. The concentrations of components in reactions varied extensively and so for each reaction the Figure or Figure legend describe the exact conditions employed.
Samples were injected in split mode (2 μL, split ratio 5:1) at an inlet temperature of 220° C. on a Hewlett Packard 6890 GC-MS equipped with a 5973 mass selective detector (MSD), and an Agilent 7683B series injector and autosampler. Separation was performed on a Zebron ZB5-HT-INFERNO column (5% phenyl methyl siloxane; length: 35 m; diameter: 250 μm) with guard column. Helium was used as mobile phase at a constant flow rate of 1.2 mL/min and average velocity 37 cm/s. After 5 min at 80° C., the column temperature was increased to 110° C. at a rate of 2.5 K/min, then to 280° C. at 120 K/min, and kept at 280° C. for another 4 min. A solvent delay of 5 min was allowed before collecting MS spectra at a fragmentation energy of 70 eV. An internal standard of (+)-camphor was used for retention time calibration. Chemically characterised standards were used to identify compounds by retention time and electron impact spectra.

[3] = target: T2, NEPS1-T154G (Nepeta racemosa, UniProt A0A3Q8GL18, T154G); assay type: biochemical, Nepeta mussinii
T2 construct: This gene-length amplicon was gel-purified and then cloned into the pOPINF vector; made in house; host or cells: E. coli SoluBL21
Procedure: as §1, §2

[4] = co-substrate NAD+ 1 mM, 25° C., 50 mM HEPES pH 8.0
[5] = co-substrate 4a 0.1 mM, substrate 1-250 μM
[6] = co-substrate 4a 0.5 mM, substrate 7.8-1000 μM
[7] = co-substrate NAD+ 1 mM, substrate 50-750 μM

Compound: CC1=COC(O)[C@H]2[C@@H](C)CC[C@@H]12 (relative stereo) [4b, cis-cis-nepetalactol]
- Kcat or V (kcat, substrate concentration varied) [1, 4]: 0.32 ± 0.01 s⁻¹
- Km [1, 4]: 4.9 ± 0.8 µM
- stability in buffer ([2]; 10 mM MOPS pH 7.5, 16 h): mostly stable
- stability in buffer ([2]; 0.5 M MOPS pH 7.5, 16 h): not stable

Compound: CC1=COC(=O)[C@H]2[C@@H]1CC[C@@H]2C (relative stereo) [1a, cis-trans-nepetalactone]
- Kcat or V (velocity V, single substrate concentration) ([1]; co-substrate NADH 0.1 mM): no reaction

Compound: NC(=O)c1ccc[n+]([C@@H]2O[C@H](COP(=O)([O-])OP(=O)(O)OC[C@H]3O[C@@H](n4cnc5c(N)ncnc54)[C@H](OP(=O)(O)O)[C@@H]3O)[C@@H](O)[C@H]2O)c1 [NADP+, reference compound]
- Kcat or V (velocity V, single substrate concentration) ([1]; co-substrate 4a 0.1 mM): 0.020 ± 0.005 s⁻¹

Compound: NC(=O)c1ccc[n+]([C@@H]2O[C@H](COP(=O)([O-])OP(=O)(O)OC[C@H]3O[C@@H](n4cnc5c(N)ncnc54)[C@H](O)[C@@H]3O)[C@@H](O)[C@H]2O)c1 [NAD+, oxidized nicotinamide adenine dinucleotide, reference compound]
- Kcat or V (kcat, substrate concentration varied) [1, 5]: 0.173 ± 0.003 s⁻¹
- Km [1, 5]: 3.5 ± 0.3 µM
- Kcat or V (kcat, substrate concentration varied) [3, 6]: 0.0599 ± 0.002 s⁻¹
- Km [3, 6]: 26 ± 4 µM

Compound: CC1=COC(O)[C@H]2[C@@H]1CC[C@@H]2C (relative stereo) [4a, cis-trans-nepetalactol]
- Kcat or V (kcat, substrate concentration varied) [1, 4]: 0.148 ± 0.002 s⁻¹
- Km [1, 4]: 1.6 ± 0.1 µM
- increase in Km caused by the T154G substitution ([3]; NEPS1-T154G versus NEPS1-WT): 150 fold
- Kcat or V (kcat, substrate concentration varied) [3, 7]: 0.0804 ± 0.005 s⁻¹
- Km [3, 7]: 251 ± 37 µM
- stability in buffer ([2]; 10 mM MOPS pH 7.5, 16 h): stable
- stability in buffer ([2]; 0.5 M MOPS pH 7.5, 16 h): stable
